In publication PMC9391460, “Biophysical and pharmacokinetic characterization of a small-molecule inhibitor of RUNX1/ETO tetramerization with anti-leukemic effects” (Scientific Reports, 2022):
Read-outs that look alike come from different tables or passages of the source.

Key:
[1] = Peff in cm sec-1 from PAMPA assays; ref Bennion, Be [13]; cited from earlier work
[2] = pKa value determination by 1H NMR; type: physicochemical
Protocol: Sodium 2,2-dimethyl-2-silapentane-5-sulfonate (DSS) was used for chemical shift referencing and calibrated to a zero ppm value in each case. […] Then the pKa was calculated by using the chemical shifts of the protonated and unprotonated forms at the respective pH and fitting to the Henderson-Hasselbalch equation[25] (Fig. 6B).
1D ^1H-NMR experiments were performed using 256 scans for each sample. ^1H chemical shift values were extracted for the reporter protons using TopSpin 3.2 (Bruker BioSpin). The pKa was calculated using the chemical shifts of the protonated and unprotonated forms and their corresponding mole fraction values applying the Henderson-Hasselbalch equation as explained by Gift et al.[25]. The data were processed and plotted with the Origin software (OriginLab Corporation, USA).

[3] = Kinetic solubility in PBS; type: physicochemical; conditions: kinetic from dmso stock
Protocol: in a cut-off concentration of 200 µM and a final solvent content of 1% DMSO. The test
solutions (triplicates) were put on a filter plate and were shaken protected from light at 300 rpm
at room temperature for 1.5 hours, followed by centrifugation at 500 x g for 3 minutes. 200 µl
of the filtrate were mixed with 100 µl ACN containing the ISTD as described in Sample

[4] = Plasma stability; type: in vitro ADME; conditions: mouse plasma, 0–240 min, 37 °C
Protocol: (§1) For plasma stability assay, working solutions of the test and reference item were diluted f r o m the stock solutions in the appropriate solvent (Table S3) to reach working solutions of 50-fold […]
(§2) and propantheline (reference item for low plasma stability) were tested at a final concentration of 10 µM. The final solvent content in the test item incubations was 0.5% DMSO, while in the propantheline incubations, no organic solvent was added.
(§3) For chemical stability assay, working solutions of the test and reference items were diluted from the stock solutions in the appropriate solvent (Table S3) to reach working solutions of 50- […]
(§4) item and Omeprazole (reference item for low chemical stability) were tested at a final concentration of 10 µM. The final solvent content in the test item incubations was 0.5% DMSO.
(§5) For the hepatic stability assay, working solutions of the test and reference items were diluted from the stock solutions in the appropriate solvent (Table S3) to reach working solutions of a 200-fold higher strength than the intended final concentrations. In a second step, working solutions were further diluted in incubation medium to reach 10-fold concentrated starting

[5] = Hepatocyte stability; type: in vitro ADME; conditions: mouse hepatocytes
Protocol: Working solutions of the test and reference items were diluted from the stock solutions in the
incubation medium to reach 10-fold concentrated starting solutions. The final test
concentrations were 5 µM with a solvent content of 0.5% DMSO or 1% ACN in all test item
and reference item incubations, respectively. 7.44 compound was dissolved 20 mM in DMSO
Primary hepatocytes from CD-1 mice (pooled, male) were thawed
according to the instructions of the manufacturer. The incubation samples were composed of
0.2 x 10^6 cells/well in 225 µL incubation medium and 25 µL test item solution (50 µM in
incubation medium), resulting in a final start concentration of 5 µM. Samples were taken from
the suspension cultures after 0, 15, 30, 60, and 120 minutes of incubation and processed for LC-
MS analysis as described in Sample preparation section.
Positive control incubations were performed using 7-ethoxycoumarin as substrate. Metabolic
turnover rates were measured at 0 and 120 minutes of incubation. Aliquotes were taken from
the incubations for sample preparation and analysis. Hepatocyte enzyme activity was assessed
in terms of 7-ethoxycoumarin turnover, i.e., loss of 7-ethoxycoumarin.
Negative controls were performed to observe non-metabolic degradation processes; i.e. test
Negative control incubations were performed
in line with all experiments using incubation medium with test and reference item in the absence
of hepatocytes. Samples were taken from the incubations at 0 and 120 minutes and processed
as described below (in Sample preparation section).

[6] = Chemical stability in PBS; type: physicochemical; conditions: pH 7.4, 0–4 h
Protocol: as §1, §2, §3, §4, §5

[7] = biological target: T1, NHR2 (Homo sapiens, UniProt Q06455); experiment: Isothermal titration calorimetry (ITC) of HEB fragment with NHR2; conditions: 25°C, one-site binding model
T1 construct: The N-terminal residues from Q485 to D495, T519, and the C-terminal residues from Y544 to K552; 6His (N, cleaved yes); SUMO (N, cleaved yes); made in house; host or cells: E. coli Rosetta (DE3)pLysS
T1 sequence (Q06455 337-404): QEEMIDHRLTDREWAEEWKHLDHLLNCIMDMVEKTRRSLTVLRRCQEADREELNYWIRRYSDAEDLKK
Protocol: The NHR2 domain was overexpressed and purified, and the resulting material yielded homogeneous, monodisperse species in solution. The sample was homogenous as analyzed by size exclusion chromatography (SEC) (Fig. 2A), SDS-PAGE (Fig. S1), and dynamic light scattering (DLS) (Fig. S3). The oligomeric state of purified NHR2 was assessed by analytical ultracentrifugation (AUC) (Fig. S4). The sedimentation profiles of NHR2 show a single major species with a sedimentation coefficient (S value) of 3.07, which corresponds to the molecular weight of 37.3 kDa. This value is in agreement with the calculated molecular weight of an NHR2 tetramer of 34.2 kDa. […] The weight percent contribution of the tetramer in 35 µM of NHR2 is 94% as obtained by integration of the continuous sedimentation coefficient distribution function. To check the function of the purified NHR2, we performed isothermal titration calorimetry (ITC) with the HEB fragment of E proteins (HEB (176–200)).
Figure S5. NHR2 interaction with E proteins (HEB (176-200)) by isothermal titration calorimetry (ITC). Titration of
600 μM HEB (176-200) peptide into a 53 μM NHR2 solution and resulting heat change are shown in the upper panel. The
ITC measurements were performed at 25°C using a MicroCal ITC200 (Malvern Instruments Ltd., United Kingdom)
calorimeter. Buffer conditions were 50 mM sodium phosphate, 50 mM sodium chloride pH 8. […]

[8] = biological target: T2, HEB 176-200 (Homo sapiens, UniProt Q99081); experiment: ITC
T2 chain: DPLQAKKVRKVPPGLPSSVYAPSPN

[9] = biological target: the molecule itself; experiment: MST

In the case of `CN(C)CCCN1c2ccccc2Sc2ccccc21` [promazine], the “log Peff/PAMPA P0-1” value [1] is given as -4.88.

Molecule `O=C(CC(C(=O)O)c1ccc2c(c1)OCO2)c1ccc2c(c1)OCO2` (stereo not drawn) [7.44] has a pKa ([2]; sodium phosphate buffer with NaCl and DMSO-d6, reporter proton H2, read-out: pKa of the carboxylic group) of 3.99 ± 0.01, a pKa ([2]; sodium phosphate buffer with NaCl and DMSO-d6, reporter proton H3, read-out: pKa of the carboxylic group) of 3.93 ± 0.01 and a pKa ([2]; sodium phosphate buffer with NaCl and DMSO-d6, summary value, read-out: pKa) of roughly 3.9. For the same molecule, the solubility kinetic at […] ([3]; 99% PBS, 1% DMSO, pH 7.4, aqueous buffer) was 177 ± 8 µM, the solubility kinetic at […] ([3]; PBS with 1% DMSO, aqueous buffer, PBS, pH 7.4, read-out: Kinetic solubility) was 0.06 mg/mL and the Plasma stability [4] was “No degradation”. The hepatocyte CLint at 5 µM ([5]; male, CD-1, primary hepatocytes (pooled, suspension), read-out: Hepatocyte stability, intrinsic clearance rate (CLint)) was 2.5 µL/min/1e6 cells, the half-life at 5 µM ([5]; male, CD-1, primary hepatocytes (pooled, suspension), read-out: half-life time) was greater than 2 h and the compound remaining ([5]; after 120 min) was 73.8%. The “Chemical stability in PBS” value [6] was “No degradation”.

For `Cn1c(=O)c2[nH]cnc2n(C)c1=O` [theophylline], the “log Peff/PAMPA P0-1” value [1] is listed as -5.91.

For `NC(=O)c1cc[n+](COC[n+]2ccccc2/C=N/O)cc1` [asoxime (HI-6), asoxime], the “log Peff/PAMPA P0-1” value [1] is given as -11.16.

In the case of `CN(C)CCCN1c2ccccc2Sc2ccc(Cl)cc21` [chlorpromazine], the “log Peff/PAMPA P0-1” value [1] is given as -5.26.

In the case of `CC(=O)[C@H]1CC[C@H]2[C@@H]3CCC4=CC(=O)CC[C@]4(C)[C@H]3CC[C@]12C` [progesterone], the “log Peff/PAMPA P0-1” value [1] is given as -4.94.

In the case of “HEB (176–200): HEB fragment of E proteins, known to interact with the NHR2 domain (DPLQAKKVRKVPPGLPSSVYAPSPN; UniProt Q99081 176-200, looked up, fragment)”, the “binding enthalpy ΔH” value [7] is reported as -62.8 ± 25 kJ/mol and the Kd ([7]; read-out: dissociation constant KD) is reported as 30 ± 4 µM.

For `C[n+]1ccccc1/C=N/O` [pralidoxime (P2-PAM), pralidoxime], the “log Peff/PAMPA P0-1” value [1] is listed as -7.52.

In the case of `O/N=C/c1cc[n+](C[n+]2ccc(/C=N/O)cc2)cc1` [methoxime (MMB4), methoxime], the “log Peff/PAMPA P0-1” value [1] is given as -9.25.

B1: NHR2 domain of RUNX1/ETO 485-552 (protein)
chain: KMERTVAEAKRQAAEDALAVINQQEDSSESCWNCGRKASETCSGCNTARYCGSFCQHKDWEKHHHICG
With B1 the Kd [8] was 30 µM.

B2: NHR2 domain of RUNX1/ETO (dimer) 485-552 (protein)
chain: B1 chain
B2 showed a Kd [9] of 1.6 µM.
